Source: patent publication US8633166B2, “Methicillin-resistant Staphylococcus aureus active metabolites” (priority 2009, dated 2014)
Values after ≈ are worked out from the molar mass of the structure shown. Read-outs that look alike come from different tables or passages of the source.

Legend:
Test in all cases: In vitro MIC, broth microdilution (CLSI)
Type in all cases: cell-based
Streptococcus pneumoniae = conditions: MHB II with 2% lysed horse blood
Description: (§1) All test articles were dissolved in DMSO. Stock solutions were prepared at 40-fold the highest concentration in the test plate. The final concentration of DMSO in the test system was 2.5%.
(§2) The medium employed for the MIC assay was Mueller Hinton II Broth (MHB II-Becton Dickinson, #212322, Lot #9044411) for most of the organisms. MHB II was supplemented with 2% lysed horse blood (Cleveland Scientific Lot #22299-1) to accommodate the growth of Streptococcus pneumoniae, Streptococcus pyogenes and Streptococcus agalactiae. The media were prepared at 102.5% the normal weight to offset the dilution created by the addition of 5 μL drug solution to each well of the microdilution panels.
(§3) The MIC assay method followed the procedure described by the Clinical and Laboratory Standards Institute (see Clinical and Laboratory Standards Institute. Methods for Dilution Antimicrobial, Susceptibility Tests for Bacteria That Grow Aerobically; Approved Standard—Eighth Edition. CLSI document M07-A8 [ISBN 1-56238-689-1]. Clinical and Laboratory, Standards Institute, 940 West Valley Road, Suite 1400, Wayne, Pa. 19087-1898 USA, 2009) and employed automated liquid handlers to conduct serial dilutions and liquid transfers. Automated liquid handlers included the Multidrop 384 (Labsystems, Helsinki, Finland), Biomek 2000 and Multimek 96 (Beckman Coulter, Fullerton Calif.).
(§4) The wells of Columns 2-12 of standard 96-well microdilution plates (Falcon 3918) were filled with 150 μL of DMSO on the Multidrop 384. The drugs (300 μL) were dispensed into Column 1 of the appropriate row in these plates. These would become the mother plates from which the test plates (daughter plates) were prepared. The Biomek 2000 completed serial transfers through Column 11 in the mother plates. The wells of Column 12 contained no drug and were the organism growth control wells in the daughter plates. The daughter plates were loaded with 185 μL of the appropriate test media (described above) using the Multidrop 384. The daughter plates were prepared on the Multimek 96 instrument which transferred 5 μL of drug solution from each well of a mother plate to each corresponding well of each daughter plate in a single step. Therefore, the test agents were maintained in solution in 100% DMSO up until the point of being added to the final test medium.
(§5) Standardized inoculum of each organism was prepared per CLSI methods (See Clinical and Laboratory Standards Institute. Performance Standards for Antimicrobial Susceptibility Testing; Nineteenth Informational Supplement. CLSI document M100-S19 [ISBN 1-56238-690-5]. Clinical and Laboratory Standards Institute, 940 West Valley Road, Suite 1400, Wayne, Pa. 19087-1898 USA, 2009.). Suspensions were prepared in MHB to equal the turbidity of a 0.5 McFarland standard. The suspensions were diluted 1:9 in broth appropriate to the organism. The inoculum for each organism was dispensed into sterile reservoirs divided by width (Beckman Coulter), and the Biomek 2000 was used to inoculate the plates. Daughter plates were placed on the Biomek 2000 work surface reversed so that inoculation took place from low to high drug concentration. The Biomek 2000 delivered 10 μL of standardized inoculum into each well. This yielded a final cell concentration in the daughter plates of approximately 5×10^5 colony-forming-units/mL. Thus, the wells of the daughter plates ultimately contained 185 μL of broth, 5 μL of drug solution, and 10 μL of bacterial inoculum. The final concentration of DMSO in the assay plate was 2.5%.
(§6) Plates were stacked 3 high, covered with a lid on the top plate, placed in plastic bags, and incubated at 35° C. for approximately 18 hours for most of the isolates. The Streptococcus plates were read after 20 hours of incubation. The microplates were viewed from the bottom using a plate viewer. […] The MIC was read and recorded as the lowest concentration of drug that inhibited visible growth of the organism.

Streptococcus pyogenes = conditions: MHB II with 2% lysed horse blood
Description: as §1, §2, §3, §4, §5, §6

Streptococcus agalactiae = conditions: MHB II with 2% lysed horse blood
Description: as §1, §2, §3, §4, §5, §6

Staphylococcus aureus = system: Staphylococcus aureus
Description: as §1, §2, §3, §4, §5, §6

Enterococcus faecium = system: Enterococcus faecium
Description: as §1, §2, §3, §4, §5, §6

[1] = system: Staphylococcus epidermidis
Description: as §1, §2, §3, §4, §5, §6

Enterococcus faecalis = system: Enterococcus faecalis
Description: as §1, §2, §3, §4, §5, §6

## CC(=O)NC[C@H]1CN(c2ccc(N3CCOCC3)c(F)c2)C(=O)O1 [Linezolid, reference compound]
Streptococcus pneumoniae; Streptococcus pneumoniae, ATCC49619, MMX 1195, CLSI QC, ATCC 49619, read-out: MIC (converted)
  MIC: 1 µg/mL (≈ 2.96 µM)
Streptococcus pneumoniae; Streptococcus pneumoniae, MMX 866, PSSP, CHP, read-out: MIC (converted)
  MIC: 1 µg/mL (≈ 2.96 µM)
Streptococcus pneumoniae; Streptococcus pneumoniae, MMX 3130, PSSP, UCLA, read-out: MIC (converted)
  MIC: 1 µg/mL (≈ 2.96 µM)
Streptococcus pneumoniae; Streptococcus pneumoniae, MMX 3937, PSSP, Mt. Sinai, read-out: MIC (converted)
  MIC: 1 µg/mL (≈ 2.96 µM)
Streptococcus pneumoniae; Streptococcus pneumoniae, PRSP, MMX 748, PRSP, CHP, read-out: MIC (converted)
  MIC: 0.5 µg/mL (≈ 1.48 µM)
Streptococcus pneumoniae; Streptococcus pneumoniae, PRSP, MMX 3160, PRSP, UCLA, read-out: MIC (converted)
  MIC: 1 µg/mL (≈ 2.96 µM)
Streptococcus pneumoniae; Streptococcus pneumoniae, PRSP, MMX 3953, PRSP, Mt. Sinai, read-out: MIC (converted)
  MIC: 0.5 µg/mL (≈ 1.48 µM)
Streptococcus pyogenes; MMX 2572, UCLA
  MIC: 1 µg/mL (≈ 2.96 µM)
Streptococcus pyogenes; MMX 3928, Mt. Sinai
  MIC: 1 µg/mL (≈ 2.96 µM)
Streptococcus pyogenes; Streptococcus pyogenes, MMX 718, CHP, read-out: MIC
  MIC: 1 µg/mL (≈ 2.96 µM)
Streptococcus agalactiae; Streptococcus agalactiae, MMX 3743, Mt. Sinai, read-out: MIC
  MIC: 1 µg/mL (≈ 2.96 µM)
Streptococcus agalactiae; Streptococcus agalactiae, MMX 4093, UCLA, read-out: MIC
  MIC: 1 µg/mL (≈ 2.96 µM)
Streptococcus agalactiae; Streptococcus agalactiae, MMX 4106, CHP, read-out: MIC
  MIC: 2 µg/mL (≈ 5.93 µM)
Staphylococcus aureus; Staphylococcus aureus, ATCC29213, MMX 100, CLSI QC, ATCC 29213, read-out: MIC (converted)
  MIC: 4 µg/mL (≈ 11.9 µM)
Staphylococcus aureus; Staphylococcus aureus, MRSA, MMX 758, MRSA, CHP, read-out: MIC (converted)
  MIC: 4 µg/mL (≈ 11.9 µM)
Staphylococcus aureus; Staphylococcus aureus, MRSA, MMX 2055, MRSA, UCLA, read-out: MIC (converted)
  MIC: 4 µg/mL (≈ 11.9 µM)
Staphylococcus aureus; Staphylococcus aureus, MRSA, MMX 3894, MRSA, Mt. Sinai, read-out: MIC (converted)
  MIC: 4 µg/mL (≈ 11.9 µM)
Staphylococcus aureus; Staphylococcus aureus, MSSA, MMX 753, MSSA, CHP, read-out: MIC (converted)
  MIC: 4 µg/mL (≈ 11.9 µM)
Staphylococcus aureus; Staphylococcus aureus, MSSA, MMX 2063, MSSA, UCLA, read-out: MIC (converted)
  MIC: 2 µg/mL (≈ 5.93 µM)
Staphylococcus aureus; Staphylococcus aureus, MSSA, MMX 3856, MSSA, Mt. Sinai, read-out: MIC (converted)
  MIC: 4 µg/mL (≈ 11.9 µM)
Enterococcus faecium; Enterococcus faecium, MMX 0799, VSE, CHP, read-out: MIC
  MIC: 2 µg/mL (≈ 5.93 µM)
Enterococcus faecium; Enterococcus faecium, MMX 0845, VSE, UCLA, read-out: MIC
  MIC: 2 µg/mL (≈ 5.93 µM)
Enterococcus faecium; Enterococcus faecium, MMX 1259, VSE, Mt. Sinai, read-out: MIC
  MIC: 4 µg/mL (≈ 11.9 µM)
Enterococcus faecium; MMX 1238, VRE, Mt. Sinai, read-out: MIC
  MIC: 2 µg/mL (≈ 5.93 µM)
Enterococcus faecium; MMX 4024, VRE, CHP, read-out: MIC
  MIC: 4 µg/mL (≈ 11.9 µM)
Enterococcus faecium; MMX 4048, VRE, UCLA, read-out: MIC
  MIC: 4 µg/mL (≈ 11.9 µM)
[1]; Staphylococcus epidermidis, MMX 835, MSSE, UCLA, read-out: MIC
  MIC: 1 µg/mL (≈ 2.96 µM)
[1]; Staphylococcus epidermidis, MMX 3703, MSSE, CHP, read-out: MIC
  MIC: 1 µg/mL (≈ 2.96 µM)
[1]; Staphylococcus epidermidis, MMX 3763, MSSE, Mt. Sinai, read-out: MIC
  MIC: 2 µg/mL (≈ 5.93 µM)
[1]; Staphylococcus epidermidis, MRSE, MMX 762, MRSE, CHP, read-out: MIC
  MIC: 1 µg/mL (≈ 2.96 µM)
[1]; Staphylococcus epidermidis, MRSE, MMX 826, MRSE, UCLA, read-out: MIC
  MIC: 1 µg/mL (≈ 2.96 µM)
[1]; Staphylococcus epidermidis, MRSE, MMX 3752, MRSE, Mt. Sinai, read-out: MIC
  MIC: 1 µg/mL (≈ 2.96 µM)
Enterococcus faecalis; Enterococcus faecalis, ATCC29212, MMX 101, CLSI QC, ATCC 29212, read-out: MIC (converted)
  MIC: 2 µg/mL (≈ 5.93 µM)
Enterococcus faecalis; Enterococcus faecalis, MMX 742, VSE, CHP, read-out: MIC (converted)
  MIC: 2 µg/mL (≈ 5.93 µM)
Enterococcus faecalis; Enterococcus faecalis, MMX 3199, VSE, UCLA, read-out: MIC (converted)
  MIC: 2 µg/mL (≈ 5.93 µM)
Enterococcus faecalis; Enterococcus faecalis, MMX 3896, VSE, Mt. Sinai, read-out: MIC (converted)
  MIC: 1 µg/mL (≈ 2.96 µM)
Enterococcus faecalis; MMX 3821, VRE, Mt. Sinai, read-out: MIC (converted)
  MIC: 2 µg/mL (≈ 5.93 µM)
Enterococcus faecalis; MMX 4131, VRE, CHP, read-out: MIC (converted)
  MIC: 2 µg/mL (≈ 5.93 µM)
Enterococcus faecalis; MMX 4160, VRE, UCLA, read-out: MIC (converted)
  MIC: 2 µg/mL (≈ 5.93 µM)

## C[C@@H]1O[C@@H](Oc2c(-c3ccc(O)cc3)oc3cc(O)cc(O)c3c2=O)[C@H](OC(=O)/C=C/c2ccc(O)cc2)[C@H](OC(=O)/C=C/c2ccc(O)cc2)[C@H]1O [Compound 1, kaempferol 3-O-α-L-(2″,3″-di-E-p-coumaroyl)rhamnoside]
Streptococcus pneumoniae; MMX 748, PRSP, CHP
  MIC: >16 µg/mL
Streptococcus pneumoniae; MMX 866, PSSP, CHP
  MIC: >16 µg/mL
Streptococcus pneumoniae; MMX 1195, CLSI QC, ATCC 49619
  MIC: >16 µg/mL
Streptococcus pneumoniae; MMX 3130, PSSP, UCLA
  MIC: >16 µg/mL
Streptococcus pneumoniae; MMX 3160, PRSP, UCLA
  MIC: >16 µg/mL
Streptococcus pneumoniae; MMX 3937, PSSP, Mt. Sinai
  MIC: >16 µg/mL
Streptococcus pneumoniae; MMX 3953, PRSP, Mt. Sinai
  MIC: >16 µg/mL
Streptococcus pyogenes; MMX 718, CHP
  MIC: >16 µg/mL
Streptococcus pyogenes; MMX 2572, UCLA
  MIC: >16 µg/mL
Streptococcus pyogenes; MMX 3928, Mt. Sinai
  MIC: >16 µg/mL
Streptococcus agalactiae; MMX 3743, Mt. Sinai
  MIC: >16 µg/mL
Streptococcus agalactiae; MMX 4093, UCLA
  MIC: >16 µg/mL
Streptococcus agalactiae; MMX 4106, CHP
  MIC: >16 µg/mL
Staphylococcus aureus; MMX 100, CLSI QC, ATCC 29213
  MIC: >8 µg/mL
Staphylococcus aureus; MMX 753, MSSA, CHP
  MIC: >8 µg/mL
Staphylococcus aureus; MMX 758, MRSA, CHP
  MIC: >8 µg/mL
Staphylococcus aureus; MMX 2055, MRSA, UCLA
  MIC: >8 µg/mL
Staphylococcus aureus; MMX 2063, MSSA, UCLA
  MIC: >8 µg/mL
Staphylococcus aureus; MMX 3856, MSSA, Mt. Sinai
  MIC: >8 µg/mL
Staphylococcus aureus; MMX 3894, MRSA, Mt. Sinai
  MIC: >8 µg/mL
Enterococcus faecium; MMX 0799, VSE, CHP
  MIC: >8 µg/mL
Enterococcus faecium; MMX 0845, VSE, UCLA
  MIC: 1 µg/mL (≈ 1.38 µM)
Enterococcus faecium; MMX 1238, VRE, Mt. Sinai
  MIC: 0.5 µg/mL (≈ 0.69 µM)
Enterococcus faecium; MMX 1259, VSE, Mt. Sinai
  MIC: >8 µg/mL
Enterococcus faecium; MMX 4024, VRE, CHP
  MIC: >8 µg/mL
Enterococcus faecium; MMX 4048, VRE, UCLA
  MIC: >8 µg/mL
[1]; MMX 762, MRSE, CHP
  MIC: >8 µg/mL
[1]; MMX 826, MRSE, UCLA
  MIC: 8 µg/mL (≈ 11 µM)
[1]; MMX 835, MSSE, UCLA
  MIC: 4 µg/mL (≈ 5.52 µM)
[1]; MMX 3703, MSSE, CHP
  MIC: 4 µg/mL (≈ 5.52 µM)
[1]; MMX 3752, MRSE, Mt. Sinai
  MIC: >8 µg/mL
[1]; MMX 3763, MSSE, Mt. Sinai
  MIC: 4 µg/mL (≈ 5.52 µM)
Enterococcus faecalis; MMX 101, CLSI QC, ATCC 29212
  MIC: 8 µg/mL (≈ 11 µM)
Enterococcus faecalis; MMX 742, VSE, CHP
  MIC: >8 µg/mL
Enterococcus faecalis; MMX 3199, VSE, UCLA
  MIC: 4 µg/mL (≈ 5.52 µM)
Enterococcus faecalis; MMX 3821, VRE, Mt. Sinai
  MIC: 4 µg/mL (≈ 5.52 µM)
Enterococcus faecalis; MMX 3896, VSE, Mt. Sinai
  MIC: 4 µg/mL (≈ 5.52 µM)
Enterococcus faecalis; MMX 4131, VRE, CHP
  MIC: 1 µg/mL (≈ 1.38 µM)
Enterococcus faecalis; MMX 4160, VRE, UCLA
  MIC: 4 µg/mL (≈ 5.52 µM)
